In article PMC12040169 (PLOS Biology, 2025):

Assay: in vitro
Settings: human, hela cells

SMILES | viability at 28.5 h, 10 µM (% viability) | viability at 28.5 h, 10 µM
Cc1ccc2nc(NC(=O)c3cc(C)n(C)n3)sc2c1 [CBK287668] | 83.9% | –
CNC(=O)Cn1nc(C)c2cnn(-c3ccccc3)c2c1=O [CBK287669] | 92.8% | –
Cc1ccc(CC(=O)N2CC(=O)Nc3ccccc32)cc1 [CBK287670] | 86.2% | –
Cc1cnc2n(c1=O)C(CC(=O)NCc1ccncc1)CS2 (centres unmarked) [CBK287671] | 111% | –
Cc1ccc(NC(=O)c2cnc(SCc3ccc(F)cc3)n(C)c2=O)cc1C [CBK287674] | 90.5% | –
O=C(CSc1nnc2ccc(-c3ccccc3)nn12)N1CCCCC1 [CBK287678] | 100% | –
Cc1cc(NC(=O)CSc2nnc3ccc(-c4ccccc4)nn23)no1 [CBK287679] | 108% | –
COc1ccc(-c2ccc3nnc(SCc4cccnc4)n3n2)cc1 [CBK287680] | 108% | –
O=C(Nc1cccc(-c2ccc3nncn3n2)c1)c1ccc(F)cc1 [CBK287682] | 87.1% | –
O=C(CSc1nnc2[nH]c(=O)ccn12)NCc1ccccc1Cl [CBK287684] | 95.1% | –
Cc1ccccc1-n1ncc2c(=O)n(Cc3ccccc3)cnc21 [CBK287690] | 96.9% | –
O=C(Cn1cnc2c(cnn2-c2cccc(Cl)c2)c1=O)N1CCCCC1 [CBK287691] | 83.3% | –
Cc1cccc(-n2ncc3c(=O)n(CC(=O)NC4CCCCC4)cnc32)c1C [CBK287694] | 104% | –
Cc1ccc(-n2ncc3c(=O)n(Cc4ccccc4C)cnc32)c(C)c1 [CBK287695] | 107% | –
CC(=O)N(Cc1cccnc1)c1nc2cc3c(cc2s1)OCCO3 [CBK287696] | 99.9% | –
COc1cccc(C(=O)Nc2nc(-c3ccccc3)cs2)c1OC [CBK287697] | 104% | –
COc1cc(-c2nnc(NC(=O)c3ccc(C)cc3)o2)cc(OC)c1OC [CBK287699] | 92.2% | –
CCCC(=O)Nc1nnc(-c2ccc(C)cc2C)o1 [CBK287700] | 107% | –
COc1cc2nc(NC(=O)C3COc4ccccc4O3)sc2cc1OC (centres unmarked) [CBK287702] | 109% | –
Cc1ccc(-c2csc(NC(=O)CS(=O)(=O)c3ccccc3)n2)cc1 [CBK287707] | 89.2% | –
Cc1ccc(NC(=O)c2cnc3sc(C)cn3c2=O)cc1 [CBK287711] | 97.8% | –
COc1ccc(NC(=O)c2cnc3sc(C)cn3c2=O)c(OC)c1 [CBK287712] | 87% | –
CS(=O)(=O)c1ccc(C(=O)Nc2nc(-c3ccccc3)cs2)cc1 [CBK287716] | 102% | –

SMILES | viability at 28.5 h, 10 µM (% viability) | viability at 28.5 h, 10 µM
O=C(CSc1ccc(-c2ccc(-n3ccnc3)cc2)nn1)NCc1ccco1 [CBK287717] | 62.2% | –
CCC(=O)N1CCN(c2nc3ccc(OC)cc3s2)CC1 [CBK287721] | 92.2% | –
O=C(c1cnccn1)N1CCN(c2nc3c(F)cccc3s2)CC1 [CBK287722] | 91.6% | –
COc1ccc(NC(=O)C(=O)NCc2ccncc2)cc1 [CBK287723] | 105% | –
COc1ccccc1NC(=O)C(=O)NCc1cccnc1 [CBK287724] | 97.5% | –
Cc1ccc(C(=O)Nc2cccc(-n3c(C)nc4ccccc4c3=O)c2)cc1 [CBK287725] | 104% | –
CS(=O)(=O)c1cccc(-c2nnc(NC(=O)c3ccccc3)o2)c1 [CBK287726] | 82.4% | –
COc1ccccc1Nc1nc(N2CCOCC2)nc(N2CCOCC2)n1 [CBK287731] | 111% | –
Cc1ccc(Nc2nc(N3CCOCC3)nc(N3CCOCC3)n2)cc1 [CBK287732] | 118% | –
O=C(CSc1nc(-c2ccccc2)cc(=O)[nH]1)NCc1ccccc1 [CBK287734] | 82.7% | –
O=C(Cc1ccc(F)cc1)Nc1nc(-c2cccs2)cs1 [CBK287736] | 82.3% | –
Cc1cc2nc(N3CCN(C(=O)c4ccc(C#N)cc4)CC3)sc2cc1C [CBK287737] | 98.8% | –
O=C(Nc1ccncc1)c1cccn(Cc2ccccc2F)c1=O [CBK287738] | 111% | –
COc1cccc(-n2c(=O)[nH]c3c(C(N)=O)nc(-c4ccccc4)nc32)c1 [CBK287740] | 121% | –
O=C(CSc1nnc(-c2cccnc2)o1)Nc1ccccc1 [CBK287742] | 82.6% | –
COc1ccccc1NC(=O)CSc1nnc(-c2ccncc2)o1 [CBK287743] | 87% | –
O=C(NCc1n[nH]c(=O)c2ccccc12)Nc1ccc(F)cc1 [CBK287744] | 94.2% | –
CC(=O)Nc1ccc(Nc2cc(C)nc(-n3nc(C)cc3C)n2)cc1 [CBK287746] | 103% | –
CCSc1c(C)cnc2c1c(=O)n(C)c(=O)n2C [CBK287748] | 99.8% | –
O=C(Nc1ccc2ncsc2c1)C1COc2ccccc2O1 (centres unmarked) [CBK287750] | 95.6% | –
COc1ccc(SCC(=O)Nc2nccs2)cc1 [CBK287751] | 83.4% | –
O=C(NCCc1c[nH]c2ccccc12)C(=O)Nc1ccncc1 [CBK287754] | 101% | –
O=C(Nc1nc(-c2cc3ccccc3o2)cs1)c1ccc(F)cc1 [CBK287756] | 114% | –

SMILES | viability at 28.5 h, 10 µM (% viability) | viability at 28.5 h, 10 µM
Cc1ccc(-c2cnc(SCC(N)=O)n2-c2ccccc2)cc1 [CBK287757] | 113% | –
CC(=O)c1sc(NC(=O)Cc2ccc(C)cc2)nc1C [CBK287760] | 89.3% | –
CCCC(=O)Nc1nc(-c2ccc(C)cc2)c(C)s1 [CBK287763] | 110% | –
Cc1c(C(=O)Nc2nccs2)nnn1-c1ccccc1 [CBK287766] | 83.9% | –
O=C(CCCn1c(=O)[nH]c2ccsc2c1=O)Nc1ccc(F)cc1 [CBK287769] | 93.3% | –
CCOc1ccc(NC(=O)c2c(O)c3ccccc3n(CC)c2=O)cc1 [CBK287771] | 107% | –
CC(=O)c1ccc(NC(=O)Cn2cnc3c(sc4ncccc43)c2=O)cc1 [CBK287773] | 95.4% | –
CC(=O)Nc1c(-c2ccc(C)cc2)c(=O)c2ccccc2n1C [CBK287775] | 88% | –
CN(C)CCCN1C(=O)C(O)=C(C(=O)c2ccncc2)C1c1ccccc1 (centres unmarked) [CBK287779] | 107% | –
COc1ccc2c(=O)c3c(oc2c1)C(=O)N(CCN(C)C)C3c1ccccn1 (centres unmarked) [CBK287781] | 98.3% | –
CCc1ccc(S(=O)(=O)Nc2cccnc2)cc1 [CBK287782] | 87.5% | –
NC(=O)C1CCN(c2ncnc3c2oc2ccccc23)CC1 [CBK287789] | 87.6% | –
O=C(Nc1ccc(Cl)cc1)c1cccc(-n2cnnn2)c1 [CBK287791] | – | 84.2%
NC(=O)CSc1nnc2ccc3ccccc3n12 [CBK287794] | 110% | –
O=C(c1ccc(F)cc1)N1CCN(c2ccccn2)CC1 [CBK287795] | 104% | –
Cc1ccccc1-n1ncc2c1ncn1nc(-c3ccccc3)nc21 [CBK287797] | 94.3% | –
COc1ccc(OCC(=O)Nc2nonc2-c2ccccc2)cc1 [CBK287798] | 93.9% | –
Cc1ccc2nc(C)cc(NC(=O)c3ccncc3)c2c1 [CBK287801] | 81.5% | –
Cc1ccc(C2=NN(C(=O)CCC(=O)O)C(c3ccc4nccnc4c3)C2)cc1 (centres unmarked) [CBK287802] | 109% | –
O=C(Nc1ccncc1)c1ccc(N2C(=O)c3ccccc3C2=O)cc1 [CBK287803] | 113% | –
COc1ccccc1-c1cc2nc(C)cc(Nc3ccccc3)n2n1 [CBK287806] | 97.3% | –
Cc1cc(C)cc(NC(=O)Cn2cnc3c(sc4ccccc43)c2=O)c1 [CBK287807] | 82.5% | –
O=c1c2[nH]c3ccccc3c2ncn1Cc1ccccc1 [CBK287809] | 103% | –

SMILES | viability at 28.5 h, 10 µM (% viability) | viability at 28.5 h, 10 µM
O=c1c2scc(-c3cccc(F)c3)c2ncn1Cc1ccc(F)cc1 [CBK287810] | 100% | –
Cn1nc2n(C)c(=O)c3ccc(C(=O)NC4CCCC4)cc3n2c1=O [CBK287811] | 113% | –
O=c1cc(Cn2ccnc2)c2cc3c(cc2o1)CCC3 [CBK287813] | 88.8% | –
COc1cc2c(cc1OC)CN(C(=O)CSc1nnc3ccccn13)CC2 [CBK287814] | 94.8% | –
Cc1cccc2c1ncn1c(=O)n(CC(=O)Nc3cccc(Cl)c3)nc21 [CBK287815] | 81.8% | –
COc1cccc(Nc2c(C(=O)N3CCCCC3)cnc3nc(C)ccc23)c1 [CBK287817] | 96% | –
O=C(Cn1c(=O)[nH]c2c(oc3ccccc32)c1=O)Nc1ccccc1 [CBK287818] | 104% | –
Cc1cc(C)c(NC(=O)CSc2ncccc2-c2nc(C)no2)c(C)c1 [CBK287821] | 86.7% | –
O=C(Cn1cnc(-c2noc(-c3cccnc3)n2)c1)Nc1ccc(Cl)cc1 [CBK287822] | 96.2% | –
O=C(NCc1ccco1)c1ccc2c(=O)n(-c3ccccc3)c(=O)[nH]c2c1 [CBK287823] | 83.7% | –
COc1ccc(OC)c(-n2c(=O)[nH]c3ccccc3c2=O)c1 [CBK287825] | 110% | –
COc1ccc2nc(-c3cccc(NC(=O)c4ccc(F)cc4)c3)cn2n1 [CBK287826] | 104% | –
COc1ccc2nc(-c3ccc(F)c(NC(=O)c4ccccc4)c3)cn2n1 [CBK287827] | 110% | –
CC(=O)Nc1cccc(NC(=O)CSc2ncnc3c2nnn3C)c1 [CBK287829] | 91.9% | –
Cn1nnc2c(N3CCN(C(=O)c4ccccc4)CC3)ncnc21 [CBK287830] | 90.6% | –
COc1ccc(C(=O)Nc2noc3nc(C)ccc23)cc1OC [CBK287832] | 89.7% | –
Cn1nccc1C(=O)Nc1nc(-c2ccccc2)cs1 [CBK287833] | 83.8% | –
CS(=O)(=O)N1CCCC(C(=O)Nc2nccs2)C1 (centres unmarked) [CBK287834] | 100% | –
Cc1cc(=O)n(CC(=O)Nc2ccc3c(c2)OCO3)cn1 [CBK287835] | 109% | –
COc1ccc(C(=O)Nc2cc(C)nn2-c2nc3ccccc3s2)cc1 [CBK287841] | 89.8% | –
O=C(Cn1cnc2ccccc2c1=O)NCCc1ccsc1 [CBK287844] | 92.6% | –
CCn1nc(-c2ccc(Cl)cc2)c2c(=O)n(C)c(=O)[nH]c21 [CBK287845] | 108% | –
COc1ccc(C2CC(c3ccc(Cl)cc3)Nc3ncnn32)c(OC)c1 (centres unmarked) [CBK287848] | 98.7% | –
